Drawing on the Kinase Knowledgebase extract (Sharma et al. 2016), this text covers IC50 and EC50 for 4 compounds.

The structures appear in SMILES notation.

One experiment has as its target PIK3CG (human) (UniProt P48736). The experiment in a line: Inhibition of PIK3CG Kinase Activity.
For a further experiment, the target named is PIK3CB (Human) (UniProt P42338). In words: Inhibition of PIK3CB Kinase Activity.
Experiment [1] has as its target PIK3CD (Human) (UniProt O00329). In words: Assessment of Elastase Exocytosis From Neutrophils.
Another experiment addresses PIK3CA (human) (UniProt P42336). The experiment in a line: Inhibition of PIK3CA Kinase Activity.
Experiment [2] has as its target PIK3CD (Human) (UniProt O00329). The experiment in a line: Assessment of Human B Lymphocyte Function. The conditions noted are these: b cells.

PIK3CD (Human), sequence (O00329 whole entry, looked up): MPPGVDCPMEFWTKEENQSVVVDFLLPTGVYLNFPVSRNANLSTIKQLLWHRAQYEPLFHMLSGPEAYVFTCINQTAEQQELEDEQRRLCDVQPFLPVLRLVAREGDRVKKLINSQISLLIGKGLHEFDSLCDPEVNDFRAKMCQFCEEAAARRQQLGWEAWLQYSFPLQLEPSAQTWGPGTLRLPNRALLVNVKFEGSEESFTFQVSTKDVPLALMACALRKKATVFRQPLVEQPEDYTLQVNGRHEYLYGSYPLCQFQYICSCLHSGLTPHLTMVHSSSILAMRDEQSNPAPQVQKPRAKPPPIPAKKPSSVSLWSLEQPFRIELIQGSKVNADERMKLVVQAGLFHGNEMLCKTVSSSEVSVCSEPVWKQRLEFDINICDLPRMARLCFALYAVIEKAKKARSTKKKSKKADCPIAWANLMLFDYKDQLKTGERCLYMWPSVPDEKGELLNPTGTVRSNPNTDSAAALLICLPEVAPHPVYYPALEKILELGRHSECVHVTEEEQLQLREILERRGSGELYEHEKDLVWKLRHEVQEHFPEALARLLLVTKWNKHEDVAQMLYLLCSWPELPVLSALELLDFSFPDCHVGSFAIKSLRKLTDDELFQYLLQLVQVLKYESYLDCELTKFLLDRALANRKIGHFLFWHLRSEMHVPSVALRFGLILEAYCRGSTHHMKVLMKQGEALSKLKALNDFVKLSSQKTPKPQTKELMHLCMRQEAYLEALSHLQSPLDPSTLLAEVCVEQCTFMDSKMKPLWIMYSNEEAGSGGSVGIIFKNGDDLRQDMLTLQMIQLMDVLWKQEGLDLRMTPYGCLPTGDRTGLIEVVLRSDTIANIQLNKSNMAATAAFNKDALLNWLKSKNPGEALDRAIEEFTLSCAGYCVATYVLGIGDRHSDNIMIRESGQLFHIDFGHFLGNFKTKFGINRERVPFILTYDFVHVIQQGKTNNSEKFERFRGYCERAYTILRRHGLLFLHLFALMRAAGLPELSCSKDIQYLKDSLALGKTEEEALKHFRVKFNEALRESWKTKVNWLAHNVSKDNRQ
PIK3CA (human), sequence (P42336 whole entry, looked up): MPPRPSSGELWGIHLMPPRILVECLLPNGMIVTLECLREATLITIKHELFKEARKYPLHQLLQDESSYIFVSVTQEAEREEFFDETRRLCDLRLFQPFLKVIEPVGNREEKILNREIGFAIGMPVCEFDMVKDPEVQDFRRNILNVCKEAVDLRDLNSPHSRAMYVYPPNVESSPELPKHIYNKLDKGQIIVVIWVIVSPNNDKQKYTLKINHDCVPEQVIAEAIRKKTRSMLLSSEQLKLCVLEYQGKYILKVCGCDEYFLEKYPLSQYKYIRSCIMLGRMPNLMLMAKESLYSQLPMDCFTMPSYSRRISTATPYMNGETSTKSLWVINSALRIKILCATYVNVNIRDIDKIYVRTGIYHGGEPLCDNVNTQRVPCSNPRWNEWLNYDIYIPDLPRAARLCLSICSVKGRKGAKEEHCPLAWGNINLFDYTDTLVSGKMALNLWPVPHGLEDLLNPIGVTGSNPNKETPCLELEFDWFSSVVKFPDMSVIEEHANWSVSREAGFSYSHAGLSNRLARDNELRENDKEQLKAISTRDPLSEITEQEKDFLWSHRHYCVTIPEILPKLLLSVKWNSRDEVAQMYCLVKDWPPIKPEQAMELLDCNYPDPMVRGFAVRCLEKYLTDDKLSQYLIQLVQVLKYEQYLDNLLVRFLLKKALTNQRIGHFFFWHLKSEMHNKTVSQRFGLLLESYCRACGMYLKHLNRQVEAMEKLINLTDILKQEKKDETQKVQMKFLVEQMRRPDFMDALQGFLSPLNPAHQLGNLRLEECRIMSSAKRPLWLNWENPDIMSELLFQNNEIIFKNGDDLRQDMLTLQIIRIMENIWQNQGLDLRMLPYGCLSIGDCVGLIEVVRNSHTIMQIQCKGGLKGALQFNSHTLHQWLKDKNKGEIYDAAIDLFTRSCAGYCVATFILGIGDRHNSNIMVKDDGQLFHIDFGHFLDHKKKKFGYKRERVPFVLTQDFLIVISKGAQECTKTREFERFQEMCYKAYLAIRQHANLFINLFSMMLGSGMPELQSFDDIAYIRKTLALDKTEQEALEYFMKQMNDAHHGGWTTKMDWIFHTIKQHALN
PIK3CB (Human), sequence (P42338 whole entry, looked up): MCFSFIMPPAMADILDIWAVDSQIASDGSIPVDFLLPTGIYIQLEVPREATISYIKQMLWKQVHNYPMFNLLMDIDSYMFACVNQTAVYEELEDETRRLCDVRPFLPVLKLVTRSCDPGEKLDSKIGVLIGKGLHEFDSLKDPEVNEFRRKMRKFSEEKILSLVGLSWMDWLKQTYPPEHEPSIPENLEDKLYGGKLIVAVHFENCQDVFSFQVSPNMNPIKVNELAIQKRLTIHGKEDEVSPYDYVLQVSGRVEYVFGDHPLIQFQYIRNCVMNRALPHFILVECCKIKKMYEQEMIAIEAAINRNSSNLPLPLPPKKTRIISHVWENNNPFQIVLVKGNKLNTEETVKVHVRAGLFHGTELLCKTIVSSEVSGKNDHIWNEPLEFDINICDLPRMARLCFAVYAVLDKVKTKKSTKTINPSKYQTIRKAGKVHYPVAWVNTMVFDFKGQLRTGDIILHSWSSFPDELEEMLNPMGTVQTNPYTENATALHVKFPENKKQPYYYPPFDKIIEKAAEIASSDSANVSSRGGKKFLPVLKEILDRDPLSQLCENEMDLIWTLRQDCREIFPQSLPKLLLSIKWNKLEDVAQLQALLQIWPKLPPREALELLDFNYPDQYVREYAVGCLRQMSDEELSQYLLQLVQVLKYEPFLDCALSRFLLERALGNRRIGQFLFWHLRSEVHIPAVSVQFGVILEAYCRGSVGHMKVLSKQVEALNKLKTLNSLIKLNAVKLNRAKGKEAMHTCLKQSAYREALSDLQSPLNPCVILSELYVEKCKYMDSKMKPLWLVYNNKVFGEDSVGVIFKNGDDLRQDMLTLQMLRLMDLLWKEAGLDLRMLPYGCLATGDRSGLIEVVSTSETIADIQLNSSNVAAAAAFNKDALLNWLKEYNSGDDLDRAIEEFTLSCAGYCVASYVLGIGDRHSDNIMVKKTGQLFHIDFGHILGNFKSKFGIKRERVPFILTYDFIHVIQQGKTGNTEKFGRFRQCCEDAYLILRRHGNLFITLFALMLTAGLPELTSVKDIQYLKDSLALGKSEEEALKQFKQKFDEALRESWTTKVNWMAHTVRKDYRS
PIK3CG (human), sequence (P48736 whole entry, looked up): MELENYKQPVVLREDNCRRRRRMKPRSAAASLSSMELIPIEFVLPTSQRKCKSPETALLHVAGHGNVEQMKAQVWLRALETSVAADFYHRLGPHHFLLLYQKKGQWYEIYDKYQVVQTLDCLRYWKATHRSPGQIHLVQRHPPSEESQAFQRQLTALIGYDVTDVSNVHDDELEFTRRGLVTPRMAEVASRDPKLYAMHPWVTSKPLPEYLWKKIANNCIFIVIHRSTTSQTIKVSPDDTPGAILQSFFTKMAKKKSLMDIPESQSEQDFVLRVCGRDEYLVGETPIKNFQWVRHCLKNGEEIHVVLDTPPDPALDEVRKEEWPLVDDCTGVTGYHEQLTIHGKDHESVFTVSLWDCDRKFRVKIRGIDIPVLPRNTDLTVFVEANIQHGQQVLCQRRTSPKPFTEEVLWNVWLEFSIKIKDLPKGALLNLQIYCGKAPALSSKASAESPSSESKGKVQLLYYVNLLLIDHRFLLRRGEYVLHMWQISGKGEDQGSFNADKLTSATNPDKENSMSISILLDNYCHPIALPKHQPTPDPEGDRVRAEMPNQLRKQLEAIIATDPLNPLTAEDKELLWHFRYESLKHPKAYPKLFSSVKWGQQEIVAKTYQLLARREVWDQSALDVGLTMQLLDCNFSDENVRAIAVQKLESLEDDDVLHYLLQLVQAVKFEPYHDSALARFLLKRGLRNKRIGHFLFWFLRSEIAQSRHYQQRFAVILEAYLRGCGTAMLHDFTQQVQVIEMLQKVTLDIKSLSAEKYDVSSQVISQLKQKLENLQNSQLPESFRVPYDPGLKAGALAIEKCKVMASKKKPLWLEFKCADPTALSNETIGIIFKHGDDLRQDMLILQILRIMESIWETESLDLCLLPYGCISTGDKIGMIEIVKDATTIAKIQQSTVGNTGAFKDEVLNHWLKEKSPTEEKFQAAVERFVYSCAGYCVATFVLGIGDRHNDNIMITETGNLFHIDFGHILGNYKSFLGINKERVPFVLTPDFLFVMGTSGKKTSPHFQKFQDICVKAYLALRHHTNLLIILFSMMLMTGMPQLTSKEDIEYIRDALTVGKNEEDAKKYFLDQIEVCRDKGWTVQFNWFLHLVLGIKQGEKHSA

In the case of `CCC(Nc1ncnc2[nH]cnc12)c1nc2cccc(C)c2c(=O)n1-c1cc(F)cc(F)c1` (centres undefined), the figures for the IC50 on PIK3CG (human), against PIK3CB (Human) and on PIK3CA (human) were 1.61 µM, 2.44 µM and 18.7 µM, respectively. This compound displayed an EC50 at PIK3CD (Human) [1] of 0.584 µM.
Turning to `CCC(Nc1ncnc2[nH]cnc12)c1nc2cccc(Cl)c2c(=O)n1-c1c(F)cccc1F` (centres undefined), the figures for the IC50 on PIK3CG (human), against PIK3CB (Human) and against PIK3CA (human) were 1.71 µM, 3.24 µM and 11.2 µM, respectively. The EC50 on PIK3CD (Human) [2] is 0.0307 µM; at PIK3CD (Human) [1], 0.298 µM.
Consider `CCC(Nc1ncnc2[nH]cnc12)c1nc2ccccc2c(=O)n1-c1ccccc1` (centres undefined), for which the IC50 on PIK3CG (human) was 1.06 µM; at PIK3CB (Human) it was 1.18 µM; at PIK3CA (human), 9.73 µM. Moreover, the EC50 at PIK3CD (Human) [2] was found to be 0.0046 µM; at PIK3CD (Human) [1] it was 0.084 µM.
With `CC[C@H](Nc1ncnc2[nH]cnc12)c1nc2cccc(Cl)c2c(=O)n1-c1cc(F)cc(F)c1`, the IC50 stood at 0.804 µM on PIK3CG (human), 0.936 µM at PIK3CB (Human) and 7.94 µM against PIK3CA (human). Moreover, the EC50 at PIK3CD (Human) [2] came to 0.0016 µM; on PIK3CD (Human) [1] it was 0.382 µM.
